For one molecule, IC50 results are on record in ChEMBL document CHEMBL3638933, “Pyrrolopyridazine JAK3 inhibitors and their use for the treatment of inflammatory and autoimmune diseases” (2014).

Structures are written as SMILES.

Assay [1] addresses T1, Tyrosine-protein kinase JAK3 (Homo sapiens, UniProt P52333).
T1 sequence (P52333 whole entry): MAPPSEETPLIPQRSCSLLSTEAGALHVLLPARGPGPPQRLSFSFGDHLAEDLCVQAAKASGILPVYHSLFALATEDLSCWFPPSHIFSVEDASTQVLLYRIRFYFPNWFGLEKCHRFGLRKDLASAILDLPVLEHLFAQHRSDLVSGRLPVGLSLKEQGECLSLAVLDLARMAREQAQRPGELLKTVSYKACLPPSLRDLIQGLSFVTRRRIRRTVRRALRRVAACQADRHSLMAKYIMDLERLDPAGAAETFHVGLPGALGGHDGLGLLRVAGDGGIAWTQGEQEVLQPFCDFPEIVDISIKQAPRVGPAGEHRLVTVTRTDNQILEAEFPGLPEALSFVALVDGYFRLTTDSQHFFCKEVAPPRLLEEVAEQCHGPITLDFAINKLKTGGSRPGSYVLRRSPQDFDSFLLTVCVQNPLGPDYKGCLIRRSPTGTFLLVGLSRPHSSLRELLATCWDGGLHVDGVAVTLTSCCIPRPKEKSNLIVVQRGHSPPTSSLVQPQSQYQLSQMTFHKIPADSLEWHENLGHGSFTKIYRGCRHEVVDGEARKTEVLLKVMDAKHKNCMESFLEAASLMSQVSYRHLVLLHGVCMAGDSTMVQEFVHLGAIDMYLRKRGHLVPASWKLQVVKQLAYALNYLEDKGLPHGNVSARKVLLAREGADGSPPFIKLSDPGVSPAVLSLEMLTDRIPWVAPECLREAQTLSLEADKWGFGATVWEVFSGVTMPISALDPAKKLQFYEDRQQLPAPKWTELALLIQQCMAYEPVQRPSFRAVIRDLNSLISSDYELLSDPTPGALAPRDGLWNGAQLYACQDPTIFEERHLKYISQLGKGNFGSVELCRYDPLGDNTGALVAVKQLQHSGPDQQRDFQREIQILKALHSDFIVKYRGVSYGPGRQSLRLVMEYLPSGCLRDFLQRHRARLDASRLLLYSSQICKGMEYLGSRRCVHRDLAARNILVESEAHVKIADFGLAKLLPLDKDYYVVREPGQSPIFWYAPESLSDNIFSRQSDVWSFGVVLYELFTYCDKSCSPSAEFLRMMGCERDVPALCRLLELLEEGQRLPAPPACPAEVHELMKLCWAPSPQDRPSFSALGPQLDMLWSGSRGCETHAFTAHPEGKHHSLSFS
Kind of assay: Reactions were incubated for 30 minutes at room temperature and stopped by the addition of cold trichloroacetic acid (TCA) to a final concentration of 15%. TCA precipitates were collected onto 384 well phosphocellulose filters (Millipore) using a Platemate to transfer the reaction mixture, washed on an EMBLA plate washer and the filters were quantitated using a TopCount 384-well liquid scintillation counter. […] Compounds were dissolved at 10 mM in dimethylsulfoxide (DMSO) and evaluated at six concentrations, each in triplicate. The final concentration of DMSO in the assay equaled 2%.

In assay [2] the target is Tyrosine-protein kinase JAK1 (Homo sapiens, UniProt P23458). In words: Kinase Assay: The assay reactions were performed in U-bottom 384-well plates. The final assay volume was 30 ul prepared from 15 ul additions of enzyme and substrates (fluoresceinated peptide and ATP) and test compounds in assay buffer (20 mM HEPES pH 7.4, 10 mM MgCl2, 25 mM beta-glycerol phosphate, 0.015% Brij35 and 4 mM DTT). The reaction was initiated by the combination of GST-JAK1 enzyme with substrates and test compounds. The reactions were incubated at room temperature for 3 hours and terminated by adding 60 ul of 35 mM EDTA to each sample. Each reaction mixture was analyzed on the Caliper LabChip 3000 (Caliper, Hopkinton, MA) by electrophoretic separation of the fluorescent substrate and phosphorylated product. […] The final concentration of reagents in the assays was: ATP, 100 uM; fluoresceinated peptide.
Tyrosine-protein kinase JAK1, sequence (P23458 whole entry): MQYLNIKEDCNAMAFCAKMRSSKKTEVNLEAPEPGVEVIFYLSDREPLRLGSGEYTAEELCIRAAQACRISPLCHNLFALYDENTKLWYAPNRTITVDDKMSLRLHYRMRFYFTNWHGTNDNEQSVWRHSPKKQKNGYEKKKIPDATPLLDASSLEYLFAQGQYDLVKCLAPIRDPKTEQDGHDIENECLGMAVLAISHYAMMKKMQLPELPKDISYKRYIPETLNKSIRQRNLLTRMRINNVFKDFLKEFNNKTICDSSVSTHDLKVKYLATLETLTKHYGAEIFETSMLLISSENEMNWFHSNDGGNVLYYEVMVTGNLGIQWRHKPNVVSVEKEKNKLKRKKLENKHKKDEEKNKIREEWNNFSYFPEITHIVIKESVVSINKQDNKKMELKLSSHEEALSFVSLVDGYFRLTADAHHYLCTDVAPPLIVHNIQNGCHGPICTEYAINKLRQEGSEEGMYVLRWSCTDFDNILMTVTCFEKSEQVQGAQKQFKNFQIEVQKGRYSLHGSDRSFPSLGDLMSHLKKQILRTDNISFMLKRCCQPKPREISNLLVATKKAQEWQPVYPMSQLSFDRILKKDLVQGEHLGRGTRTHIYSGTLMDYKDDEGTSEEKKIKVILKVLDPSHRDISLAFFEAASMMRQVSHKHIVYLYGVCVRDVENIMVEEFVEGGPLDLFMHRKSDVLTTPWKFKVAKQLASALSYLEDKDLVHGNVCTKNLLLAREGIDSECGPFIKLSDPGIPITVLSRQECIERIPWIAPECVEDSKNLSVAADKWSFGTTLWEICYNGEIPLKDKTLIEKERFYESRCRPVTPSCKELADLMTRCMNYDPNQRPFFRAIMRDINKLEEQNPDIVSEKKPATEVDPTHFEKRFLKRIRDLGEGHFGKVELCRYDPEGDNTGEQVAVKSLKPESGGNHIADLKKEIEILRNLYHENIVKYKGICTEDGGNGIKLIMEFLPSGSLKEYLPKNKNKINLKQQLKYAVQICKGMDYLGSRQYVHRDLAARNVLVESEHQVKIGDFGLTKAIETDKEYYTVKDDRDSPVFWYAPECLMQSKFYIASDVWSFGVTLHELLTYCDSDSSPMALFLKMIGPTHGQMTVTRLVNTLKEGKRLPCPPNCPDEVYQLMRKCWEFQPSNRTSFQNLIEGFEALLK

As for `CC1(C)[C@H](Nc2c(C(N)=O)cnn3cc(-c4ccc(C#N)nc4)cc23)CC[C@]1(C)C(N)=O`, the IC50 – broadly, the midpoint of a concentration-inhibition curve – in assay [1] worked out at 1 nM; in assay [2], 5.8 nM.
